Measurements as given in patent US7709636B2, “Pyrazole sulfonylurea compound and herbicide” (Nissan Chemical Industries, Ltd., priority 2004, dated 2010).

Legend:
[1] = tested on: direct sown rice; test: Herbicidal effect test by soil treatment; format: in vivo, Oryza sativa; details: 1.6 g/a, 3 weeks after treatment
Summary of the method: (§1)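 Seeds were sown in sterilized diluvial soil and covered with about 1.5 cm of soil. A wettable powder diluted in water to a predetermined formulation amount was sprayed uniformly on the soil surface. Herbicidal effect was scored visually 3 weeks after treatment.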

[2] = tested on: Echinochloa crus-galli; test: Herbicidal effect test in submerged condition by treatment during weed-growth stage (1); format: in vivo; details: 0.64 g/a, treated at 1st to 2nd leaf stage, 3 weeks after treatment
Summary of the method: (§2)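 Paddy-soil pots flooded to 4 cm water depth were sown and grown in a greenhouse at 25 to 30° C until weeds reached 1st to 2nd leaf stage. A wettable powder diluted in water to a predetermined formulation amount was applied to the water surface. Herbicidal effect was scored 3 weeks after treatment against set criteria.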

[3] = tested on: Monochoria vaginalis; test: as above; format: in vivo; details: 0.64 g/a, treated at 1st to 2nd leaf stage, 3 weeks after treatment
Summary of the method: as §2

[4] = tested on: Scirpus juncoides; test: as above; format: in vivo; details: 0.64 g/a, treated at 1st to 2nd leaf stage, 3 weeks after treatment
Summary of the method: as §2

[5] = tested on: Echinochloa crus-galli; test: Herbicidal effect test by foliage treatment; format: in vivo; details: 1.6 g/a; foliage treatment after growth of 14 days; 3 weeks after treatment
Summary of the method: (§3)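 Seeds sown in sterilized diluvial soil, covered with about 1.5 cm soil and grown 14 days in a greenhouse at 25 to 30° C. Foliage then sprayed uniformly with water-diluted wettable powder at a predetermined formulation amount; herbicidal effect scored 3 weeks after treatment.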

[6] = tested on: Black-grass; test: Herbicidal effect test by foliage treatment; format: in vivo; details: 1.6 g/a; foliage treatment after growth of 14 days; 3 weeks after treatment
Summary of the method: as §3

[7] = tested on: Chenopodium album; test: Herbicidal effect test by foliage treatment; format: in vivo; details: 1.6 g/a; foliage treatment after growth of 14 days; 3 weeks after treatment
Summary of the method: as §3

[8] = tested on: Setaria viridis; test: Herbicidal effect test by foliage treatment; format: in vivo; details: 1.6 g/a; foliage treatment after growth of 14 days; 3 weeks after treatment
Summary of the method: as §3

[9] = tested on: Avena fatua; test: Herbicidal effect test by foliage treatment; format: in vivo; details: 1.6 g/a; foliage treatment after growth of 14 days; 3 weeks after treatment
Summary of the method: as §3

[10] = tested on: Ambrosia elatior; test: Herbicidal effect test by foliage treatment; format: in vivo; details: 1.6 g/a; foliage treatment after growth of 14 days; 3 weeks after treatment
Summary of the method: as §3

[11] = tested on: Stellaria media; test: Herbicidal effect test by foliage treatment; format: in vivo; details: 1.6 g/a; foliage treatment after growth of 14 days; 3 weeks after treatment
Summary of the method: as §3

[12] = tested on: corn (Zea mays); test: Herbicidal effect test by foliage treatment; format: in vivo; details: 1.6 g/a; foliage treatment after growth of 14 days; 3 weeks after treatment
Summary of the method: as §3

[13] = tested on: Abutilon avicennae; test: Herbicidal effect test by foliage treatment; format: in vivo; details: 1.6 g/a; foliage treatment after growth of 14 days; 3 weeks after treatment
Summary of the method: as §3

[14] = tested on: Triticum aestivum (wheat); test: Herbicidal effect test by foliage treatment; format: in vivo; details: 1.6 g/a; foliage treatment after growth of 14 days; 3 weeks after treatment
Summary of the method: as §3

[15] = tested on: Digitaria adscendes; test: Herbicidal effect test by foliage treatment; format: in vivo; details: 1.6 g/a; foliage treatment after growth of 14 days; 3 weeks after treatment
Summary of the method: as §3

[16] = tested on: soybean (Glycine max); test: Herbicidal effect test by foliage treatment; format: in vivo; details: 1.6 g/a; foliage treatment after growth of 14 days; 3 weeks after treatment
Summary of the method: as §3

[17] = tested on: Amaranthus retroflexus; test: Herbicidal effect test by foliage treatment; format: in vivo; details: 1.6 g/a; foliage treatment after growth of 14 days; 3 weeks after treatment
Summary of the method: as §3

[18] = tested on: Polygonum blumei; test: Herbicidal effect test by foliage treatment; format: in vivo; details: 1.6 g/a; foliage treatment after growth of 14 days; 3 weeks after treatment
Summary of the method: as §3

[19] = tested on: Beta vulgaris (beet); test: Herbicidal effect test by foliage treatment; format: in vivo; details: 1.6 g/a; foliage treatment after growth of 14 days; 3 weeks after treatment
Summary of the method: as §3

[20] = tested on: Echinochloa crus-galli; test: Herbicidal effect test by soil treatment; format: in vivo; details: 1.6 g/a, 3 weeks after treatment
Summary of the method: as §1

[21] = tested on: Black-grass; test: Herbicidal effect test by soil treatment; format: in vivo; details: 1.6 g/a, 3 weeks after treatment
Summary of the method: as §1

[22] = tested on: Setaria viridis; test: Herbicidal effect test by soil treatment; format: in vivo; details: 1.6 g/a, 3 weeks after treatment
Summary of the method: as §1

[23] = tested on: Avena fatua; test: Herbicidal effect test by soil treatment; format: in vivo; details: 1.6 g/a, 3 weeks after treatment
Summary of the method: as §1

[24] = tested on: Stellaria media; test: Herbicidal effect test by soil treatment; format: in vivo; details: 1.6 g/a, 3 weeks after treatment
Summary of the method: as §1

[25] = tested on: Abutilon avicennae; test: Herbicidal effect test by soil treatment; format: in vivo; details: 1.6 g/a, 3 weeks after treatment
Summary of the method: as §1

[26] = tested on: direct sown rice; test: Herbicidal effect test by foliage treatment; format: in vivo, Oryza sativa; details: 1.6 g/a; foliage treatment after growth of 14 days; 3 weeks after treatment
Summary of the method: as §3

[27] = tested on: Echinochloa crus-galli; test: Herbicidal effect test in submerged condition by treatment before weed-generation (1); format: in vivo; details: 0.64 g/a, water surface treated on day of sowing, 3 weeks after treatment
Summary of the method: (§4)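 Alluvial soil flooded to 4 cm depth; weeds sown and rice seedlings (2.5-leaf stage) transplanted, then wettable powder diluted in water applied to the water surface on sowing day. Greenhouse at 25 to 30° C; herbicidal effect scored 0–5 after 3 weeks (5 = ≥90% kill, 0 = ≤5%).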

[28] = tested on: Monochoria vaginalis; test: as above; format: in vivo; details: 0.64 g/a, water surface treated on day of sowing, 3 weeks after treatment
Summary of the method: as §4

[29] = tested on: Scirpus juncoides; test: as above; format: in vivo; details: 0.64 g/a, water surface treated on day of sowing, 3 weeks after treatment
Summary of the method: as §4

With COc1cc(OC)nc(NC(=O)NS(=O)(=O)c2c(C3=NOCC(C)O3)c(Cl)nn2C)n1 (centres unmarked) [Compound 1, N-((4,6-dimethoxypyrimidin-2-yl)aminocarbonyl)-3-chloro-1-methyl-4-(5-methyl-5H,6H-1,4,2-dioxadin-3-yl)pyrazole-5-sulfonamide] the “herbicidal effect, d: direct sown rice” value [1] was 2 (Herbicidal rate 20% or more and less than 40%), the “herbicidal effect, A: Echinochloa crus-galli” value [2] was 5 (Herbicidal rate 90% or more (almost complete death)) and the “herbicidal effect, C: Monochoria vaginalis” value [3] was 5 (Herbicidal rate 90% or more (almost complete death)). The “herbicidal effect, B: Scirpus juncoides” value [4] was 5 (Herbicidal rate 90% or more (almost complete death)), the “herbicidal effect, A: Echinochloa crus-galli” value [5] was 5 (Herbicidal rate 90% or more (almost complete death)) and the “herbicidal effect, G: Black-grass” value [6] was 4 (Herbicidal rate 70% or more and less than 90%). For the same compound, the “herbicidal effect, K: Chenopodium album” value [7] was 4 (Herbicidal rate 70% or more and less than 90%), the “herbicidal effect, E: Setaria viridis” value [8] was 3 (Herbicidal rate 40% or more and less than 70%) and the “herbicidal effect, F: Avena fatua” value [9] was 1 (Herbicidal rate 5% or more and less than 20%). For the same compound, the “herbicidal effect, I: Ambrosia elatior” value [10] was 5 (Herbicidal rate 90% or more (almost complete death)), the “herbicidal effect, M: Stellaria media” value [11] was 5 (Herbicidal rate 90% or more (almost complete death)) and the “herbicidal effect, b: corn (Zea mays)” value [12] was 5 (Herbicidal rate 90% or more (almost complete death)). The “herbicidal effect, H: Abutilon avicennae” value [13] was 5 (Herbicidal rate 90% or more (almost complete death)), the “herbicidal effect, e: Triticum aestivum (wheat)” value [14] was 2 (Herbicidal rate 20% or more and less than 40%) and the “herbicidal effect, D: Digitaria adscendes” value [15] was 5 (Herbicidal rate 90% or more (almost complete death)). For the same compound, the “herbicidal effect, c: soybean (Glycine max)” value [16] was 5 (Herbicidal rate 90% or more (almost complete death)), the “herbicidal effect, J: Amaranthus retroflexus” value [17] was 5 (Herbicidal rate 90% or more (almost complete death)) and the “herbicidal effect, L: Polygonum blumei” value [18] was 5 (Herbicidal rate 90% or more (almost complete death)). The “herbicidal effect, f: Beta vulgaris (beet)” value [19] was 5 (Herbicidal rate 90% or more (almost complete death)), the “herbicidal effect, A: Echinochloa crus-galli” value [20] was 2 (Herbicidal rate 20% or more and less than 40%) and the “herbicidal effect, G: Black-grass” value [21] was 4 (Herbicidal rate 70% or more and less than 90%). For the same compound, the “herbicidal effect, E: Setaria viridis” value [22] was 1 (Herbicidal rate 5% or more and less than 20%), the “herbicidal effect, F: Avena fatua” value [23] was 0 (Herbicidal rate 5% or less (little effect)) and the “herbicidal effect, M: Stellaria media” value [24] was 5 (Herbicidal rate 90% or more (almost complete death)). The “herbicidal effect, H: Abutilon avicennae” value [25] was 4 (Herbicidal rate 70% or more and less than 90%), the “herbicidal effect, d: direct sown rice” value [26] was 0 (Herbicidal rate 5% or less (little effect)) and the “herbicidal effect, A: Echinochloa crus-galli” value [27] was 5 (Herbicidal rate 90% or more (almost complete death)). For the same compound, the “herbicidal effect, C: Monochoria vaginalis” value [28] was 5 (Herbicidal rate 90% or more (almost complete death)) and the “herbicidal effect, B: Scirpus juncoides” value [29] was 5 (Herbicidal rate 90% or more (almost complete death)).
